Results from BigSolDB 2.1.

CC(C)(N)C(=O)O
solubility (mole fraction)
Details	283.15 K	288.15 K	293.15 K	298.15 K	303.15 K	308.15 K	313.15 K	318.15 K	323.15 K
in 2-butanone	0.000215	0.000258	0.000319	0.000415	0.000507	0.000599	0.00068	0.000803	0.000946
in DMF	5.8e-05	0.00019	0.000365	0.00067	0.00102	0.00163	0.00245	0.00356	0.00462
in acetone	6e-05	9.7e-05	0.00016	0.000211	0.000253	0.000319	0.000386	0.000442	0.000501
in acetonitrile	0.000123	0.00014	0.000163	0.000189	0.000218	0.00024	0.000277	0.000317	0.000366
in ethanol	0.000102	0.000183	0.000277	0.000376	0.000479	0.000579	0.000669	0.000763	0.000879
in ethyl acetate	0.000164	0.000246	0.000353	0.000507	0.000635	0.000808	0.000949	0.00111	0.00137
in isopropanol	0.000157	0.000176	0.000198	0.000227	0.000275	0.000336	0.000396	0.000466	0.000576
in methanol	0.000625	0.000658	0.000715	0.000792	0.000878	0.000947	0.00106	0.00117	0.0013
in methyl acetate	6.8e-05	0.000102	0.00013	0.000168	0.00021	0.000248	0.000306	0.000364	0.000436
in n-butanol	0.000158	0.000219	0.00027	0.000334	0.00043	0.000518	0.00065	0.000783	0.000963
in n-pentanol	0.0002	0.000248	0.000302	0.000369	0.000448	0.000523	0.000616	0.000721	0.000843
in n-propanol	0.00015	0.000207	0.000302	0.000388	0.000466	0.000553	0.000659	0.000774	0.000945
in water	0.0256	0.0259	0.0261	0.0266	0.0269	0.0273	0.0276	0.0282	0.0291
